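Five compound concentrations were applied to cells in 96-well plates for 48 hours; endpoints were derived by simple linear interpolation of the resulting dose-response curve. TGI denotes the concentration required for complete inhibition of growth.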
Key:
Assay in all cases: inhibition of tumour cell growth, NCI panel, 48 h
NCI-H522 lung = system: NCI-H522 lung
PC-3 prostate = system: PC-3 prostate
MCF7 breast = system: MCF7 breast
HT29 colon = system: HT29 colon
IGROV1 ovarian = system: IGROV1 ovarian
MALME-3M melanoma = system: MALME-3M melanoma
NCI-H23 lung = system: NCI-H23 lung
HOP-92 NSCLC = system: HOP-92 NSCLC
MDA-N = system: MDA-N
HCT-116 colon = system: HCT-116 colon
HL-60(TB) leukemia = system: HL-60(TB) leukemia
SR leukemia = system: SR leukemia
OVCAR-4 ovarian = system: OVCAR-4 ovarian
UACC-257 melanoma = system: UACC-257 melanoma
SK-MEL-2 melanoma = system: SK-MEL-2 melanoma
OVCAR-5 ovarian = system: OVCAR-5 ovarian
NCI-H460 lung = system: NCI-H460 lung
DU-145 prostate = system: DU-145 prostate
RPMI-8226 leukemia = system: RPMI-8226 leukemia
SW-620 colon = system: SW-620 colon
OVCAR-8 ovarian = system: OVCAR-8 ovarian
A498 renal = system: A498 renal
HCT-15 colon = system: HCT-15 colon
SK-MEL-28 melanoma = system: SK-MEL-28 melanoma
SK-MEL-5 melanoma = system: SK-MEL-5 melanoma
MDA-MB-435 = system: MDA-MB-435
HS 578T breast = system: HS 578T breast
A549 NSCLC = system: A549 NSCLC
SF-295 CNS = system: SF-295 CNS
SN12C renal = system: SN12C renal
MDA-MB-231 breast = system: MDA-MB-231 breast
EKVX NSCLC = system: EKVX NSCLC
U251 CNS = system: U251 CNS
UO-31 renal = system: UO-31 renal
SNB-75 CNS = system: SNB-75 CNS
UACC-62 melanoma = system: UACC-62 melanoma
TK-10 renal = system: TK-10 renal
BT-549 breast = system: BT-549 breast
OVCAR-3 ovarian = system: OVCAR-3 ovarian
786-0 renal = system: 786-0 renal
COLO 205 colon = system: COLO 205 colon
NCI-H226 lung = system: NCI-H226 lung
NCI/ADR-RES ovarian = system: NCI/ADR-RES ovarian
CAKI-1 renal = system: CAKI-1 renal
SF-539 CNS = system: SF-539 CNS
RXF 393 renal = system: RXF 393 renal
SK-OV-3 ovarian = system: SK-OV-3 ovarian
LOX IMVI melanoma = system: LOX IMVI melanoma
SF-268 CNS = system: SF-268 CNS
T-47D breast = system: T-47D breast
K-562 leukemia = system: K-562 leukemia
HOP-62 NSCLC = system: HOP-62 NSCLC
ACHN renal = system: ACHN renal
M14 melanoma = system: M14 melanoma
SNB-19 CNS = system: SNB-19 CNS
HCC-2998 colon = system: HCC-2998 colon
KM12 colon = system: KM12 colon

SMILES: O=C1c2ccccc2NC(c2cc(Cl)cc(Cl)c2O)N1CCc1ccccn1 (configuration not stated)
- TGI (NCI-H522 lung): > 100 µM
- TGI (PC-3 prostate): > 100 µM
- TGI (MCF7 breast): > 100 µM
- TGI (HT29 colon): > 100 µM
- TGI (IGROV1 ovarian): > 100 µM
- TGI (MALME-3M melanoma): > 100 µM
- TGI (NCI-H23 lung): > 100 µM
- TGI (HOP-92 NSCLC): > 100 µM
- TGI (MDA-N): > 100 µM
- TGI (HCT-116 colon): > 100 µM
- TGI (HL-60(TB) leukemia): > 100 µM
- TGI (SR leukemia): > 100 µM
- TGI (OVCAR-4 ovarian): 98.9 µM
- TGI (UACC-257 melanoma): > 100 µM
- TGI (SK-MEL-2 melanoma): > 100 µM
- TGI (OVCAR-5 ovarian): > 100 µM
- TGI (NCI-H460 lung): > 100 µM
- TGI (DU-145 prostate): > 100 µM
- TGI (RPMI-8226 leukemia): > 100 µM
- TGI (SW-620 colon): > 100 µM
- TGI (OVCAR-8 ovarian): > 100 µM
- TGI (A498 renal): > 100 µM
- TGI (HCT-15 colon): > 100 µM
- TGI (SK-MEL-28 melanoma): > 100 µM
- TGI (SK-MEL-5 melanoma): > 100 µM
- TGI (MDA-MB-435): > 100 µM
- TGI (HS 578T breast): > 100 µM
- TGI (A549 NSCLC): > 100 µM
- TGI (SF-295 CNS): > 100 µM
- TGI (SN12C renal): > 100 µM
- TGI (MDA-MB-231 breast): > 100 µM
- TGI (EKVX NSCLC): > 100 µM
- TGI (U251 CNS): > 100 µM
- TGI (UO-31 renal): > 100 µM
- TGI (SNB-75 CNS): > 100 µM
- TGI (UACC-62 melanoma): > 100 µM
- TGI (TK-10 renal): > 100 µM
- TGI (BT-549 breast): > 100 µM
- TGI (OVCAR-3 ovarian): > 100 µM
- TGI (786-0 renal): > 100 µM
- TGI (COLO 205 colon): > 100 µM
- TGI (NCI-H226 lung): > 100 µM
- TGI (NCI/ADR-RES ovarian): > 100 µM
- TGI (CAKI-1 renal): > 100 µM
- TGI (SF-539 CNS): > 100 µM
- TGI (RXF 393 renal): > 100 µM
- TGI (SK-OV-3 ovarian): > 100 µM
- TGI (LOX IMVI melanoma): > 100 µM
- TGI (SF-268 CNS): > 100 µM
- TGI (T-47D breast): 69.8 µM
- TGI (K-562 leukemia): > 100 µM
- TGI (HOP-62 NSCLC): > 100 µM
- TGI (ACHN renal): > 100 µM
- TGI (M14 melanoma): > 100 µM
- TGI (SNB-19 CNS): > 100 µM
- TGI (HCC-2998 colon): > 100 µM
- TGI (KM12 colon): > 100 µM

— PubChem BioAssay (NCI)
